Data: patent publication US10183011B2, “Anti-depression compounds” (Board of Regents of the University of Texas System, priority 2009, dated 2019)
Several values for one entry are separate records, joined by “and”; a condition that tells them apart may be missing. Identical values can stand only once. Entries after “also recorded” stand apart in the source; their conditions may differ. Like-named read-outs stand apart in the source and are kept apart here.

Assays:
[1] = Pharmacokinetic analysis in plasma and whole brain tissue; type: in vivo, mouse; details: for concentration at 5 h: brain, five hours after dosing, read-out: brain level
Source text: Pharmacokinetic analysis of Example 45 Compound in plasma and whole brain tissue was undertaken after single IV, IP and oral gavage administrations. […] These favorable pharmacological properties facilitated a dose response experiment wherein daily oral administration of Example 45 Compound to adult mice was monitored for both brain levels of the chemical and pro-neurogenic efficacy (FIG. 7).

[2] = tested on: newborn neurons in the dentate gyrus; experiment: BrdU pulse-chase and doublecortin staining with oral dosing for 30 days; type: in vivo, mouse (C57/B6)
Method: FIG. 10A and FIG. 10B: Example 45 Compound enhances the survival of newborn neurons in the dentate gyrus. […] (FIG. 10B) Example 45 Compound enhances hippocampal neurogenesis by promoting survival of newborn neurons. Three month old wild type C57/B6 male mice were exposed to orally-delivered Example 45 Compound or vehicle for 30 days (n=5 animals/group), administered a single pulse of BrdU via IP injection (150 mg/kg), and then sacrificed 1 hour, 1 day, 5 days or 30 days later for immunohistochemical detection of BrdU incorporation into cells localized in the subgranular layer of the dentate gyrus. […] In this longer-term trial, BrdU+ cells were observed both in the SGZ and the granular layer of the dentate gyrus.
The nature of the cells produced in the subgranular zone of the dentate gyrus was investigated when Example 45 Compound was administered as follows. Animals were exposed to oral administration of Example 45 Compound for 30 days. Brain tissue was then prepared for immunohistochemical staining with an antibody to doublecortin (DCX), a microtubule-associated protein that serves as a marker of neurogenesis in the dentate gyrus by virtue of transient expression in newly formed neurons, but not glial cells, between the timing of their birth and final maturation (Brown et al., 2003).
Example 45 Compound-mediated neurogenesis was next investigated to see whether it was attributable to increased cell proliferation or protection of newborn cells from cell death during the time between their birth and eventual incorporation into the granular layer of the dentate gyrus. This was accomplished by comparing the ability of Example 45 Compound to enhance either short- or long-term increases in the incorporation of BrdU in the dentate gyrus (FIG. 10B). Animals exposed to orally-delivered Example 45 Compound or vehicle for 30 days were administered a single pulse of BrdU via IP injection. Short-term effects on neuron birth were monitored by sacrificing animals one hour post-BrdU injection, followed by fixation of the tissue, sectioning and immunohistochemical detection of BrdU incorporation into cells localized in the subgranular layer of the dentate gyrus. […] It is hypothesized that these cells represent mature neurons that have migrated into the granular layer, completed the differentiation process, and incorporated themselves into the dentate gyrus as properly wired neurons. Observations supportive of this interpretation will be presented in a subsequent section of this document. In summary, these experiments give evidence that Example 45 Compound enhances the formation of neurons in the mature hippocampus, and that its mode of action would appear to take place at some point subsequent to their birth.

[3] = tested on: cultured primary cortical neurons; experiment: Mitochondrial membrane potential (TMRM) after A23187 in cultured primary cortical neurons; type: cell-based; details: rat E14 cortical neurons
Source text: (§1) FIG. 23: Example 45 Compound Preserves Mitochondrial Membrane Potential in Cultured Primary Cortical Neurons. Cortical neurons cultures from rats on embryonic day 14 were loaded with tetramethylrhodamine methyl ester (TMRM) dye after 6 days of maturation. […] The remaining panels are from cells that were exposed to the calcium ionophore A23187 at time zero. With vehicle-alone, cortical neuron mitochondrial membrane potential was rapidly lost after exposure to the ionophore. […] Results shown are representative of 10 fields analyzed in each of 2 experimental runs for all conditions.
as §1, with “It was also examined whether” for “FIG. 23:”, “preserves mitochondrial membrane potential” for “Preserves Mitochondrial Membrane Potential”, “cultured primary cortical neurons (FIG. 23).” for “Cultured Primary Cortical Neurons.”

[4] = target: β-secretase (BACE1) (Homo sapiens, UniProt P56817); details: Asso V., et al. (2008) Chem Med Chem 3:1530-1534; cited from earlier work
[5] = tested on: HeLa cells; experiment: Toxicity to HeLa cells; type: cell-based
[6] = tested on: histamine receptor; experiment: Histamine receptor binding

β-secretase (BACE1), sequence (P56817 46-501, species assumed): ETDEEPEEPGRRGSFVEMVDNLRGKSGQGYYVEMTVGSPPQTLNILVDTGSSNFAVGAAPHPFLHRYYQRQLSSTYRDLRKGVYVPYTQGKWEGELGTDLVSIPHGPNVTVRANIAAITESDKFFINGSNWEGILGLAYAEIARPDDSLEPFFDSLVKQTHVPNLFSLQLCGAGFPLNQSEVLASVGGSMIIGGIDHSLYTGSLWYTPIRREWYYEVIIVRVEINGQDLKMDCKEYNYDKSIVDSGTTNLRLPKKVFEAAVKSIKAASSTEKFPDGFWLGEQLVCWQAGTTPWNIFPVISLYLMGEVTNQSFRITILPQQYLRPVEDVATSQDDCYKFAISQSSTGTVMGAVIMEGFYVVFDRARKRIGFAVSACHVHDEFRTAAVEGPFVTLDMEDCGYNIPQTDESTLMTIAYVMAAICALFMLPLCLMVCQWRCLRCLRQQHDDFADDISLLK

OC(CNc1ccccc1)Cn1c2ccc(Br)cc2c2cc(Br)ccc21 (centres unmarked) [Example 45 Compound]
concentration at 5 h ([1]; mouse, oral 1 mg/kg): 213 nM and 101 ng/g | concentration at 5 h ([1]; mouse, oral 2.5 mg/kg): 1.13 µM and 534 ng/g | concentration at 5 h ([1]; mouse, oral 5 mg/kg): 1.35 µM and 640 ng/g | half-life ([1]; mouse, plasma, after IP delivery, read-out: plasma terminal half life (converted)): 402 min | blood-brain barrier crossing ([1]; single IV, IP and oral gavage administrations): readily able to cross the blood-brain barrier | oral bioavailability ([1]; single oral gavage administration): orally bioavailable | doublecortin (DCX) staining of newborn neurons ([2]; 20 mg/kg daily for 30 days by oral gavage): increased dramatically; also recorded: substantially increased | increase in BrdU+ cells compared to vehicle ([2]; 5 days after BrdU pulse): 25% | increase in abundance of BrdU+ cells in the dentate gyrus relative to vehicle ([2]; daily oral dose for 30 days starting 24 hours after BrdU pulse): 5 fold | BrdU+ cells versus vehicle, short term ([2]; oral for 30 days, 1 hour or 1 day after BrdU pulse): did not lead to an elevation in the level of BrdU-positive cells relative to vehicle; also recorded: No significant differences | dose giving full protection of mitochondrial membrane potential [3]: 1 mM

OC(CNc1cccc2ccccc12)Cn1c2ccc(Cl)cc2c2cc(Cl)ccc21 (centres unmarked) [Example P7C3-S184]
BACE1 inhibition [4]: reported as a β-secretase (BACE1) inhibitor

COc1cccc(NCC(F)Cn2c3ccc(Br)cc3c3cc(Br)ccc32)c1 (centres unmarked) [Example P7C3A20, N-(3-(3,6-dibromo-9H-carbazol-9-yl)-2-fluoropropyl)-3-methoxyaniline]
toxicity to HeLa cells [5]: no hERG channel binding, histamine receptor binding or toxicity to HeLa cells | histamine receptor binding [6]: no hERG channel binding, histamine receptor binding
